Test results from PubChem BioAssay AID2124 (Sanford-Burnham Center for Chemical Genomics, 2009).
Results filed as inconclusive are left out. Calls of active or inactive are those of the source. How the calls were made is not given here; tested in MIN6 cells.

Experiment: GFP-wavelength compound autofluorescence in cells – imaging, high-content imaging, artefact control, dose response (AID 2124);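 further: cells exposed to compound for 48 hours before fixing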
Details: cells, GFP-channel autofluorescence, high-content imaging, at 10 µM; for z-score: stronger effect = higher value

SMILES | z-score | cell count [cells]
CN(C)c1ccc(/C=C2\SC(=O)N(CCc3nnc(N)s3)C2=O)cc1 | -0.3 (inactive) | 3290
Cc1ccc(-n2c(Cc3cccs3)nnc2SCC(=O)OC(C)C)cc1 | -0.38 (inactive) | 2980
Oc1ccc(Cl)cc1C1=Nc2ccccc2N=C(c2ccco2)C1 | -0.35 (inactive) | 2660
CC[n+]1c(/C=C/C=C/N(C(C)=O)c2ccccc2)sc2cc(OC)ccc21 | 7.8 | 111
CN(C)C(=O)C1C2NC(=S)N(c3cccc(Cl)c3)C1(C)Oc1ccc(Cl)cc12 (centres undefined) | -0.39 (inactive) | 3180
Cc1ccc(-c2cc(N)n(-c3ccccc3)n2)cc1 | -0.33 (inactive) | 3090
CC(C)NC(=O)NC(=O)COC(=O)c1cccc(S(=O)(=O)N2CCCCC2)c1 | -0.39 (inactive) | 3040
Cc1ccc(N2C(=O)c3cccc4c(N5CCN(C)CC5)ccc(c34)C2=O)c2cccnc12 | 0.07 | 1800
O=S(=O)([O-])CCC[n+]1c(/C=C\Nc2ccccc2)oc2ccc(-c3ccccc3)cc21 | 1.34 | 3120
CCN(CC)c1ccc(/C=C(/C#N)c2nc3ccc(C)cc3[nH]2)c(OC(C)C)c1 | 2.57 | 1480
Cn1c(=O)c(NC2CCCCC2)c2c3c(cccc31)C(=O)c1ccccc1-2 | 3.32 | 3050
CNC(=O)c1ccc(-c2sc3nc(N4CCOCC4)c4c(c3c2N)CC(C)(C)OC4)o1 | -0.33 (inactive) | 2290
CN1CCN(C2=CC3=CC(=C(C#N)C#N)CCC3CC2)CC1 (centres undefined) | 0.91 | 2810
CC(=O)OC(C(=O)NCc1ccc(F)cc1)c1ccccn1 (centres undefined) | -0.39 (inactive) | 2840
COc1ccc(C(=O)N(CN2CCCC2=O)c2ccc(C)cc2)cc1 | -0.33 (inactive) | 3380
CCOc1ccc(C2C(C(=O)O)c3ccccc3C(=O)N2CCN2CCOCC2)cc1 (centres undefined) | -0.39 (inactive) | 3370
C=CCSc1nnc(NC(=O)c2cccc(S(=O)(=O)N3CCOCC3)c2)s1 | -0.38 (inactive) | 2670
COc1ccccc1CC(=O)NC1CC(C)(C)NC(C)(C)C1 | -0.33 (inactive) | 2940
C(=C/c1nccc2c1[nH]c1ccccc12)/c1ccc2c(c1)OCO2 | 0.26 | 1910

SMILES | z-score | cell count [cells]
C=CCNC(=O)C1CC2Cn3c(nc4cc5ccccc5cc43)C2N1C (centres undefined) | -0.39 (inactive) | 3390
CC1=NNC(=O)C1CCC(=O)N/N=C/c1ccc(C)cc1 (centres undefined) | -0.39 (inactive) | 3320
CCn1c(Cn2nnc(-c3ccccc3)n2)nnc1SCC(=O)Nc1ccc(C(C)=O)cc1 | -0.33 (inactive) | 3180
Cc1ccc(/C=[N+](\[O-])c2ccc(N(C)C)cc2)c2nsnc12 | -0.38 (inactive) | 1880
O=C(COC(=O)c1ccco1)NCC1CCCO1 (centres undefined) | -0.39 (inactive) | 2790
COC(CNC(=O)c1ccc(Cn2c(=S)[nH]c3cc4c(cc3c2=O)OCO4)cc1)OC | -0.33 (inactive) | 3340
COc1ccc(C)cc1NC(=O)COC(C)=O | -0.33 (inactive) | 3030
Cc1ccc([N+](=O)[O-])cc1NC(=O)c1cccs1 | -0.33 (inactive) | 3030
CCCCc1ccc2[nH]cc(CCN)c2c1 | -0.38 (inactive) | 2320
Cc1nnc(NC(=O)c2sc3nc(-c4cccs4)cc(C(F)(F)F)c3c2N)s1 | 0.85 | 2610
CC1CCc2c(sc3nn[nH]c(=O)c23)C1 (centres undefined) | -0.33 (inactive) | 2750
Cn1c(=O)c(N)c2c3c(c(Br)ccc31)C(=O)c1ccccc1-2 | 0.12 | 3210
CCOC(=O)c1nnn(-c2nonc2N)c1-c1ccc(OCC)cc1 | -0.39 (inactive) | 3520
O=C(/C=C/c1ccc2ccccc2n1)c1cc(Br)ccc1O | -0.24 (inactive) | 2620
COc1cc(N2CCCC2)c(OC)cc1/C=C(/C#N)c1cccc(Br)c1 | 0.19 | 3340
CCOC(=O)c1sc(NC(=O)c2sccc2C)cc1C | -0.39 (inactive) | 3300
CCn1ncc(Br)c1C(=O)Nc1sc2c(c1C(N)=O)CCC2 | -0.39 (inactive) | 3350
COc1ccc2nc(SCC(=O)Nc3c(C)cccc3C)[nH]c2c1 | -0.39 (inactive) | 3480
CCOC(=O)c1cnn(-c2cc(C)nc3c(-c4ccccc4)cnn23)c1N | -0.39 (inactive) | 3280

SMILES | z-score | cell count [cells]
COc1c2c(nc3ccccc13)OC(C(C)(O)COC(C)=O)C2 (centres undefined) | -0.33 (inactive) | 2830
CC1CCCCC1NC(=O)COC(=O)c1c2c(nc3ccccc13)/C(=C/c1ccco1)CC2 (centres undefined) | -0.35 (inactive) | 2820
COC(=O)Cc1c(C)nc2nc(NCc3ccccc3OC)[nH]n2c1=O | -0.26 (inactive) | 3050
Cc1ccc(C2(C(F)(F)F)N=C3Sc4cc(C)ccc4N3C(=O)N2)cc1 (centres undefined) | -0.39 (inactive) | 2940
COc1ccc(/C=C(\C#N)C(=O)OCC(=O)Nc2c(C)cccc2C(C)C)cc1 | -0.39 (inactive) | 2950
CCCNC(=O)Cn1c(=O)/c(=C\c2ccc(-c3ccc([N+](=O)[O-])cc3)o2)s/c1=C\C(=O)C(C)(C)C | 2.07 | 3100
Nc1nc(-c2ccc(Cl)cc2)c(N=Nc2ccc(S(=O)(=O)N3CCOCC3)cc2)s1 | -0.32 (inactive) | 2990
COc1ccc(C2C(C(=O)N3CCOCC3)CCC(=O)N2c2ccc(OC)cc2)cc1 (centres undefined) | -0.26 (inactive) | 3020
CN(C)C(=O)CN(c1ccc2c(c1)OCO2)S(C)(=O)=O | -0.33 (inactive) | 2880
CCS(=O)(=O)c1ccc2oc(SCC(=O)NC3CCCC(C)C3C)nc2c1 (centres undefined) | -0.26 (inactive) | 2950
Cc1cc(SCCOc2ccccc2)nc(N)n1 | -0.39 (inactive) | 3470
CCOC(=O)c1c(-c2ccc(C)cc2)csc1NC(=O)/C(C#N)=C/c1ccc(O)c(OC)c1 | -0.3 (inactive) | 2890
Cc1cccc(NC(=O)Nc2ccc(C#N)cc2)n1 | -0.32 (inactive) | 2800
CCN1/C(=C/c2cc[n+](CCCS(=O)(=O)[O-])c3ccccc23)Sc2ccccc21 | -0.24 (inactive) | 1390
CN(C)C=Nc1ccc2nn(-c3ccccc3)nc2c1 | -0.34 (inactive) | 3050
CN1C(=O)CC(N2CCN(Cc3ccc(Cl)cc3)CC2)C1=O (centres undefined) | -0.39 (inactive) | 2870
COC(=O)c1cc(NC(=O)c2ccccc2)c(=O)oc1/C=C/Nc1ccc(Oc2ccccc2)cc1 | 0.11 | 3070
CCCCNC(=S)NC(=O)c1ccc(Cl)cc1Cl | -0.39 (inactive) | 3500
CC(C)SC1=NC(C)(C)C=C(/C=C/c2ccc(Cl)cc2Cl)N1 | -0.36 (inactive) | 2940
